Reference: US20120028976A1, “PHARMACOKINETICALLY-BASED DOSING REGIMENTS OF A THROMBIN RECEPTOR ANTAGONIST” (priority 2008, published 2012)
Read-outs that look alike come from different tables or passages of the source.

What was measured:
[1] = Rising single dose (RSD) study: pharmacokinetics of orally administered COMPOUND 1 in healthy subjects; type: in vivo, human; settings: for Cmax / AUC(0-t) / Tmax: po; for time for which plasma concentrations were quantifiable: LLOQ 0.1 ng/ml
Source text: (§1) Phase I clinical studies were designed to evaluate the pharmacokinetics of COMPOUND 1 in healthy subjects after rising single and multiple doses. The study included a randomized, evaluator-blind, placebo-controlled, rising single dose (“RSD”) study and a rising multiple dose (“RSM”) study of orally administered COMPOUND 1 in healthy subjects.
(§2) In the single-dose study, 50 healthy males were enrolled into 6 sequential cohorts and randomized to receive in ascending dose manner placebo (n=2-3/group) or oral COMPOUND 1 (0.25, 1, 5, 10, 20 and 40 mg; n=5-6/group). In the multiple-dose study, 36 healthy subjects were enrolled into 3 sequential cohorts and randomized to receive in ascending-dose manner placebo (n=4/group) or oral COMPOUND 1(1, 3, and 5 mg OD in the morning for 28 days, n=8/group). A fourth cohort in the same study (n=12) was randomized to receive a single loading dose of COMPOUND 1, 10 mg (n=6) or 20 mg (n=6) on Day 1, followed by maintenance doses of 1 mg daily for 6 days. Measured and derived pharmacokinetic parameters were used to assess the pharmacokinetic profile. The doses were administered using appropriate combinations of the capsule formulations disclosed in Table 1.
Several observations were made from the data collected in the RSD Study. […] Tmax ranged from 0.5 to 2 hrs after dosing.
To estimate the terminal-phase half-life (t½) of COMPOUND 1, samples were collected from subjects in the 20 mg and 40 mg dose groups for up to 64 days after dosing. […] Plasma concentrations were quantifiable for up to 53 days in subjects administered 20 mg and up to 62 days in subjects administered 40 mg.

clinical = settings: human, in vivo
Source text: as §1, §2
Variability was low to moderate.
The RMD study also allowed evaluation of COMPOUND 1 accumulation. Mean accumulation index (R) values ranged from 4.72 to 6.37. The effective half-lives determined from R values ranged from 59.8 to 141 hrs.

[2] = single oral dose 40 mg, maximum individual value
[3] = single oral dose 40 mg, minimum individual value

With CCOC(=O)N[C@@H]1CC[C@@H]2[C@@H](C1)C[C@H]1C(=O)O[C@H](C)[C@H]1[C@H]2/C=C/c1ccc(-c2cccc(F)c2)cn1 [COMPOUND 1] the “time to maximal plasma levels” value ([1]; across all doses in both studies (single and multiple oral dosing)) was 60 to 90 min, the half-life ([1]; male, human, plasma, oral, subjects of the 20 mg and 40 mg single dose groups, samples up to 64 days after dosing, read-out: apparent terminal-phase half-life (t1/2)) was 126 to 269 h and the Cmax ([1]; male, human, plasma, 0.25 mg, single oral dose 0.25 mg, n=6, healthy males, plasma, mean (CV %), read-out: Cmax) was 2.23 ng/mL. It also gave an AUC(0-t) ([1]; male, human, plasma, 0.25 mg, single oral dose 0.25 mg, n=6, mean (CV %), read-out: AUC(0-72 hr)) of 33.7 ng·h/mL, a Tmax ([1]; male, human, plasma, 0.25 mg, single oral dose 0.25 mg, n=6, value (range), read-out: Tmax) of 1 h and an AUC(0-t) ([1]; male, human, plasma, 1 mg, single oral dose 1 mg, n=6, mean (CV %), read-out: AUC(0-72 hr)) of 142 ng·h/mL. For the same molecule, the Cmax ([1]; male, human, plasma, 1 mg, single oral dose 1 mg, n=6, mean (CV %), read-out: Cmax) was 9.29 ng/mL, the Tmax ([1]; male, human, plasma, 1 mg, single oral dose 1 mg, n=6, value (range), read-out: Tmax) was 1.25 h and the AUC(0-t) ([1]; male, human, plasma, 5 mg, single oral dose 5 mg, n=6, mean (CV %), read-out: AUC(0-72 hr)) was 740 ng·h/mL. It also gave a Cmax ([1]; male, human, plasma, 5 mg, single oral dose 5 mg, n=6, mean (CV %), read-out: Cmax) of 51.4 ng/mL, a Tmax ([1]; male, human, plasma, 5 mg, single oral dose 5 mg, n=6, value (range), read-out: Tmax) of 0.75 h and an AUC(0-t) ([1]; male, human, plasma, 10 mg, single oral dose 10 mg, n=6, mean (CV %), read-out: AUC(0-72 hr)) of 1510 ng·h/mL. The Cmax ([1]; male, human, plasma, 10 mg, single oral dose 10 mg, n=6, mean (CV %), read-out: Cmax) was 99.2 ng/mL, the Tmax ([1]; male, human, plasma, 10 mg, single oral dose 10 mg, n=6, value (range), read-out: Tmax) was 1.5 h and the AUC(0-t) ([1]; male, human, plasma, 20 mg, single oral dose 20 mg, n=5, mean (CV %), read-out: AUC(0-72 hr)) was 3350 ng·h/mL. It also gave a Cmax ([1]; male, human, plasma, 20 mg, single oral dose 20 mg, n=5, mean (CV %), read-out: Cmax) of 183 ng/mL, a Tmax ([1]; male, human, plasma, 20 mg, single oral dose 20 mg, n=5, value (range), read-out: Tmax) of 1.5 h and a Tmax ([1]; male, human, plasma, 40 mg, loading dose 40 mg, single oral (Table 3), read-out: Tmax range) of 0.5 to 1.5 h. For the same molecule, the AUC(0-t) ([1]; male, human, plasma, 40 mg, loading dose 40 mg, single oral, range of individual values (Table 3), read-out: AUC(0-72 hr) range) was 4740 to 7510 ng·h/mL, the Cmax ([1]; male, human, plasma, 40 mg, loading dose 40 mg, single oral, range of individual values (Table 3), read-out: Cmax range) was 238 to 511 ng/mL and the AUC(0-t) ([1]; male, human, plasma, 40 mg, single oral dose 40 mg, n=5, mean (CV %), read-out: AUC(0-72 hr), Mean) was about 6030 ng·h/mL. The Cmax ([1]; male, human, plasma, 40 mg, single oral dose 40 mg, n=5, mean (CV %), read-out: Cmax, Mean) was about 376 ng/mL, the Tmax ([1]; male, human, plasma, 40 mg, single oral dose 40 mg, n=5, value (range), read-out: Tmax, Mean) was 1.5 h and the Tmax ([1]; male, human, plasma, 40 mg, single oral dose 40 mg, Tmax corresponding to maximum individual Cmax, read-out: Tmax, Max) was 1.5 h. The Tmax ([1]; male, human, plasma, 40 mg, single oral dose 40 mg, Tmax corresponding to minimum individual Cmax, read-out: Tmax) was 0.5 h, the Tmax ([1]; male, human, plasma, single oral doses 0.25 to 40 mg, all dose groups, read-out: Tmax range after dosing) was 0.5 to 2 h and the “dose relation of exposure” value ([1]; single doses up to 40 mg, FIG. 2) was “dose related”. For the same molecule, the “time for which plasma concentrations were quantifiable” value ([1]; single oral dose 20 mg) was “up to 53 days”, the “time for which plasma concentrations were quantifiable” value ([1]; single oral dose 40 mg) was “up to 62 days” and the “AUC(0-72 hr), Max” value [1, 2] was 7508 ng·h/mL. For the same molecule, the “Cmax, Max” value [1, 2] was 511 ng/mL, the “AUC(0-72 hr), Min” value [1, 3] was 4745 ng·h/mL and the “Cmax, Min” value [1, 3] was 238 ng/mL. The “coefficient of variability (CV) for AUC(0-24 h)” value (clinical) was 14-34%, the “dose relation of exposure” value (clinical) was “increased in a dose-related manner” and the “AUC(0-24 hr) Mean” value (clinical; 1 mg) was 58.5 ng·h/mL. The “Cmax Mean” value (clinical; 1 mg) was 9.78 ng/mL, the “AUC(0-24 hr) Mean” value (clinical; 3 mg) was 225 ng·h/mL and the Cmax (clinical; 3 mg, Cmax Mean) was 38.2 ng/mL. For the same molecule, the Tmax (clinical; 3 mg, Tmax Median) was 1 h, the “AUC(0-24 hr) Mean” value (clinical; 5 mg) was 315 ng·h/mL and the “Cmax Mean” value (clinical; 5 mg) was 56.4 ng/mL. For the same molecule, the “effective half-lives determined from R values” (clinical; 5 mg) was 60 to 141 h, the Tmax (clinical; 5 mg, Tmax Median) was 1 h and the half-life (clinical; 5 mg, effective half-lives determined from R values) was 59.8 to 141 h. The “Mean accumulation index (R) values, range over dose groups” value (clinical; 28 days) was 4.72-6.37, the half-life (clinical; Mean terminal-phase half-life (t1/2), range over dose groups) was 173 to 269 h and the Tmax (clinical; Median Tmax values, range over dose groups) was 1 to 1.5 h. It also gave a Tmax (clinical; Tmax Median) of 1 h.
